Laboratory results reported in patent US20040009899A1, “Treating dominant disorders” (priority 2002, published 2004).

Columns and labels:
[1] = tested on: endogenous mouse Hdh allele; assay: Western immunoblot of endogenous mouse htt expression in PNA-treated R6/1 mice; assay type: in vivo; conditions: any tissue examined (striatum, liver), any tested time point (4 or 6 days)
Protocol: Cannulation and microsurgery—method 1: B6CBA, R6/1, and R6/2 mice were obtained from The Jackson Laboratory (Bar Harbor, Me.). Mice were anesthetized via intraperitoneal (i.p.) injection with 100 mg/kg of a ketamine/xylazine solution containing 8 mg/mL ketamine and 1 mg/mL xylazine in 0.9% saline. Once anesthetized, each mouse was cannulated. Each anesthetized mouse was placed in a Stoelting Stereotaxic Frame with a mouse adapter (Stoelting Instruments, Wood Dale, Ill.). An incision was made using a scalpel, and the skin and tissue were pulled back with swabs to reveal the skull. The cannulation site was positioned for optimum access to the ventricle, at coordinates AP −0.2 mm, Horiz −1 mm from bregma. A cannula entry port and two bone screw ports were opened in the skull using a Dremel Flex Shaft Drill (Stoelting Instruments) with a 2.1 mm burr for the guide cannula port and a 0.7 mm burr for the bone screws (Fine Science Tools, Foster City, Calif.). Two 4.0 mm long bone screws (0.85 diameter) were placed far enough into the bone screw ports to fasten securely. […]
Following the treatment period, mice were anesthetized with ether and sacrificed by cervical dislocation. […] Following centrifugation, the supernatants were removed and protein concentrations were quantified by Bradford assays using a BSA standard. […]

mice = assay: Toxicity observation (behavior, weight, motor function) during intraventricular PNA treatment; assay type: in vivo; conditions: 1.0 μL (25 μg/μL) into the ventricle every other day
Protocol: Animal treatment and tissue preparation: Aliquots of 1.0 μL (25 μg/μL) of a PNA oligomer specific for the expanded human HD allele (HDs) or a scrambled control PNA (HDscr) were administered into the ventricle every other day by injection via the cannula.

R6/2 mice = assay: Survival of R6/2 transgenic mice treated with PNA; assay type: in vivo, mouse
Protocol: (§1) Cannulation and microsurgery—Method 2: Pump cannulas were prepared 48 hours before surgery. For adaptation to mice, Alzet pump cannulas were ground to a length of 2 mm. The cannulas then were sterilized by gas ozonation. Mice were anesthetized via i.p. injection with 100 mg/kg of a ketamine/xylazine solution containing 8 mg/mL ketamine and 1 mg/mL xylazine in 0.9% saline. Once anesthetized, each mouse was cannulated. Each anesthetized mouse was placed in a Stoelting Stereotaxic Frame with a mouse adapter (Stoelting Instruments). An incision was made using a scalpel, and the skin and tissue were pulled back with swabs to reveal the skull. The cannulation site was positioned for optimum access to the ventricle, at coordinates AP −0.2 mm, Horiz −1 mm from bregma. A cannula entry port and two bone screw ports were opened in the skull using a Dremel Flex Shaft Drill (Stoelting Instruments) with a 2.1 mm burr. The cannula was lowered into place and affixed using Loctite 454 (Loctite Corp., Avon, Ohio). An Alzet Mini-Osmotic Pump was inserted into a pouch beneath the skin and attached to the cannula with silastic tubing. The wound was closed using wound clips and the animal was allowed to recuperate.
Delivery of PNA oligomer solutions: All handling of tubing and cannulas was done under sterile conditions. PNA solutions at the correct concentrations were diluted in artificial cerebrospinal fluid (ACSF; 147 mM NaCl, 4.02 mM KCl, 1.2 mM CaCl2, pH 7.5) and then filtered for delivery. As a control, ACSF containing no PNA was delivered.
Experiments were conducted to determine whether PNA-mediated inhibition of mutant huntingtin expression increased survival and/or reversed features of pathophysiology. R6/2 and non-transgenic mice were divided into two groups of three to five mice each, and treated with either HDs or ACSF for approximately ten weeks, beginning at five to six weeks of age. Treated animals received a dose of 0.15 mg/kg of the HDs PNA oligomer, administered by continuous infusion through an Alzet pump. All ACSF-treated transgenic mice died by three months of age.
In other experiments, R6/2 mice were divided into five groups (designated groups 1-5) containing eight to ten animals each. Groups 1-4 received either saline (group 1) or a specific amount of HDs (groups 2-4). Group 5 included untreated R6/2 mice. A sixth group included untreated non-transgenic B6CBA control mice. At 8 weeks of age, each mouse was weighed to establish a weight stability baseline. Baselines for clasping behavior, motility, and motor skill were established at 9 weeks of age using the methods described in Example 1.
At 9 weeks of age, the mice in each group received saline (group 1) or HDs at 2.0 mg/kg, 5.0 mg/kg, or 20.0 mg/kg (groups 2, 3, and 4, respectively) by i.p. injection every 48 hours. The injections continued through 13 weeks of age (i.e., treatment for […]). Weight stability, clasping behavior, motility, and motor skill were assessed weekly during the treatment period. At the time of death or after the treatment period, the brain of each mouse was removed using standard methods. The brains were divided into hemispheres, and one hemisphere of each brain was saved for protein and mRNA analysis. The remaining hemispheres were fixed directly in 10% formalin for 5-7 days. After fixing, the brain hemispheres were weighed individually and processed for sectioning and pathophysiology.

non-transgenic mice = conditions: mouse, in vivo, 0.15 mg/kg
Protocol: as §1
Delivery of PNA oligomer solutions: All handling of tubing and cannulas was done under sterile conditions. […]

## HDs: sense PNA oligomer, 14 residues, 5′-GGACTGCCGTGCCG-3′ (SEQ ID NO:3), specific for the expanded human HD allele (all peptide nucleic acid (PNA))
[1]
  effect on expression of the endogenous mouse Hdh allele: Neither HDs nor HDscr had any effect
mice
  toxicity as measured by weight or motor function relative to untreated animals: no effects of toxicity
R6/2 mice; 0.15 mg/kg continuous infusion by Alzet pump
  survival of longest-surviving treated animal (one of three): still alive and healthy at six months of age
R6/2 mice; 0.15 mg/kg continuous infusion by Alzet pump, about ten weeks from five to six weeks of age, ACSF-treated all died by three months
  survival: improved survival
R6/2 mice; 2.0 mg/kg i.p. every 48 hours from 9 weeks of age
  mice alive at 13 weeks of age: None
R6/2 mice; 5.0 mg/kg i.p. every 48 hours from 9 weeks of age
  mice alive at 13 weeks of age: 50%
R6/2 mice; 20.0 mg/kg i.p. every 48 hours from 9 weeks of age
  mice alive at 13 weeks of age: 20%
non-transgenic mice
  effect of treatment on non-transgenic animals: appeared unaffected
